Reference: the NIST ThermoML archive (doi:10.1016/j.jct.2004.06.004)

How the values were obtained:
[1] = xn = mol fraction of the nth substance listed; settings: 101.3 kPa, Liquid
[2] = Liquid

O [water] + CCOCCO
[1], x2 = 0
Settings | viscosity [mPa·s]
303.15 K | 0.7975
308.15 K | 0.7195
313.15 K | 0.6532
318.15 K | 0.5963
323.15 K | 0.5471

NCCO [2-aminoethan-1-ol] + O
viscosity [mPa·s], [1]
Settings | x1 = 0.03219 | x1 = 0.06969 | x1 = 0.1138 | x1 = 0.1666 | x1 = 0.2306 | x1 = 0.3102 | x1 = 0.4116 | x1 = 0.5452 | x1 = 0.7296 | x1 = 1
303.15 K | 1.081 | 1.448 | 2.041 | 2.93 | 4.28 | 6.27 | 9.25 | 12.42 | 14.56 | 14.71
308.15 K | 0.962 | 1.282 | 1.784 | 2.513 | 3.61 | 5.23 | 7.3 | 9.75 | 11.62 | 11.82
313.15 K | 0.865 | 1.149 | 1.536 | 2.085 | 2.932 | 4.23 | 5.88 | 7.82 | 9.26 | 9.27
318.15 K | 0.779 | 1.01 | 1.345 | 1.786 | 2.472 | 3.51 | 4.92 | 6.53 | 7.57 | 7.52
323.15 K | 0.703 | 0.907 | 1.173 | 1.553 | 2.125 | 2.925 | 3.95 | 5.24 | 6.06 | 6.21

CCOCCO [2-ethoxyethan-1-ol]
[2]
Settings | mass density, 293.15 K [kg/m3] | viscosity, 293.15 K [mPa·s] | viscosity, 303.15 K [mPa·s] | viscosity, 308.15 K [mPa·s] | viscosity, 313.15 K [mPa·s] | viscosity, 318.15 K [mPa·s] | viscosity, 323.15 K [mPa·s]
101.3 kPa | – | 2.077 | 1.612 | 1.413 | 1.24 | 1.166 | 1.026
101.33 kPa | 929.7 | – | – | – | – | – | –

CCOCCO [2-ethoxyethan-1-ol] + O
viscosity [mPa·s], [1]
Settings | x1 = 0.0201 | x1 = 0.04419 | x1 = 0.07339 | x1 = 0.1098 | x1 = 0.1561 | x1 = 0.2172 | x1 = 0.3015 | x1 = 0.4252 | x1 = 0.6247 | x1 = 1
303.15 K | 1.046 | 1.384 | 1.709 | 2.135 | 2.516 | 2.711 | 2.858 | 2.747 | 2.266 | 1.612
308.15 K | 0.924 | 1.177 | 1.472 | 1.769 | 2.057 | 2.248 | 2.329 | 2.2 | 1.951 | 1.413
313.15 K | 0.814 | 1.008 | 1.238 | 1.499 | 1.711 | 1.864 | 1.947 | 1.867 | 1.676 | 1.24
318.15 K | 0.71 | 0.898 | 1.108 | 1.322 | 1.521 | 1.663 | 1.723 | 1.632 | 1.516 | 1.166
323.15 K | 0.651 | 0.791 | 0.958 | 1.164 | 1.339 | 1.45 | 1.55 | 1.486 | 1.361 | 1.026

COCCO [2-methoxyethan-1-ol]
[2]
Settings | mass density, 293.15 K [kg/m3] | viscosity, 293.15 K [mPa·s] | viscosity, 303.15 K [mPa·s] | viscosity, 308.15 K [mPa·s] | viscosity, 313.15 K [mPa·s] | viscosity, 318.15 K [mPa·s] | viscosity, 323.15 K [mPa·s]
101.3 kPa | – | 1.991 | 1.375 | 1.126 | 0.942 | 0.832 | 0.757
101.33 kPa | 965.2 | – | – | – | – | – | –

Settings | viscosity [mPa·s]
[2], 293.15 K, 101.33 kPa, Capillary tube (Ostwald / Ubbelohde) method | 1.991

COCCO [2-methoxyethan-1-ol] + O
viscosity [mPa·s], [1]
Settings | x1 = 0.0247 | x1 = 0.05399 | x1 = 0.08909 | x1 = 0.1321 | x1 = 0.1858 | x1 = 0.2551 | x1 = 0.3475 | x1 = 0.4773 | x1 = 0.6726 | x1 = 1
303.15 K | 1.08 | 1.353 | 1.656 | 1.979 | 2.247 | 2.396 | 2.418 | 2.296 | 1.825 | 1.375
308.15 K | 0.953 | 1.165 | 1.459 | 1.652 | 1.888 | 2.016 | 2.051 | 1.941 | 1.528 | 1.126
313.15 K | 0.811 | 0.985 | 1.205 | 1.367 | 1.529 | 1.668 | 1.733 | 1.6 | 1.323 | 0.942
318.15 K | 0.735 | 0.885 | 1.031 | 1.176 | 1.368 | 1.457 | 1.53 | 1.41 | 1.133 | 0.832
323.15 K | 0.667 | 0.796 | 0.926 | 1.056 | 1.226 | 1.322 | 1.381 | 1.258 | 1.05 | 0.757

O [water] + COCCO
[1], x2 = 0
Settings | viscosity [mPa·s]
303.15 K | 0.7975
308.15 K | 0.7195
313.15 K | 0.6532
318.15 K | 0.5963
323.15 K | 0.5471

O [water] + NCCO
[1], x2 = 0
Settings | viscosity [mPa·s]
303.15 K | 0.7975
308.15 K | 0.7195
313.15 K | 0.6532
318.15 K | 0.5963
323.15 K | 0.5471

NCCO [2-aminoethan-1-ol]
Settings | mass density [kg/m3]
[2], 293.15 K, 101.33 kPa, Pycnometric method | 1012.1

[2], 101.3 kPa
Settings | viscosity [mPa·s]
298.15 K | 18.91
303.15 K | 14.71
308.15 K | 11.82
313.15 K | 9.27
318.15 K | 7.52
323.15 K | 6.21
